What was measured:
Assay in all cases: microbe, parasite or virus in culture
[1] = system: B/Victoria-lineage viruses; assay type: cell-based; details: Influenza B virus, read-out: median IC50
A(H3N2) viruses = assay type: cell-based; details: Influenza A virus, H3N2, read-out: median IC50
A(H1N1)pdm09 viruses = assay type: cell-based, influenza A(H1N1)pdm09 virus; details: Influenza A virus, H1N1, read-out: median IC50
[2] = system: B/Yamagata-lineage viruses; assay type: cell-based; details: Influenza B virus, read-out: median IC50

Question: What does the source list for `O=C1c2c(O)c(=O)ccn2N([C@@H]2c3ccccc3SCc3c2ccc(F)c3F)[C@@H]2COCCN12` [Baloxavir, baloxavir acid]?
Answer: IC50 [1]: 3.42 nM; IC50 (A(H3N2) viruses): 0.16 nM; IC50 (A(H1N1)pdm09 viruses): 0.28 nM; IC50 [2]: 2.43 nM

Source: publication PMC6291754 (Frontiers in Microbiology, 2018)
